Reference: PubChem BioAssay (NCI)
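At the GI50, growth is halved. The concentration for full growth arrest is given as TGI.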

Assays:
Assay in all cases: growth of human tumour cells (NCI), 384-well format
786-0 renal = tested on: 786-0 renal
A498 renal = tested on: A498 renal
A549 NSCLC = tested on: A549 NSCLC
ACHN renal = tested on: ACHN renal
BT-549 breast = tested on: BT-549 breast
CAKI-1 renal = tested on: CAKI-1 renal
CCRF-CEM leukemia = tested on: CCRF-CEM leukemia
DU-145 prostate = tested on: DU-145 prostate
EKVX NSCLC = tested on: EKVX NSCLC
HCT-116 colon = tested on: HCT-116 colon
HCT-15 colon = tested on: HCT-15 colon
HL-60(TB) leukemia = tested on: HL-60(TB) leukemia
HOP-62 NSCLC = tested on: HOP-62 NSCLC
HOP-92 NSCLC = tested on: HOP-92 NSCLC
HS 578T breast = tested on: HS 578T breast
HT29 colon = tested on: HT29 colon
IGROV1 ovarian = tested on: IGROV1 ovarian
K-562 leukemia = tested on: K-562 leukemia
KM12 colon = tested on: KM12 colon
LOX IMVI melanoma = tested on: LOX IMVI melanoma
M14 melanoma = tested on: M14 melanoma
MALME-3M melanoma = tested on: MALME-3M melanoma
MCF7 breast = tested on: MCF7 breast
MDA-MB-231 breast = tested on: MDA-MB-231 breast
MDA-MB-435 melanoma = tested on: MDA-MB-435 melanoma
MDA-MB-468 breast = tested on: MDA-MB-468 breast
MOLT-4 leukemia = tested on: MOLT-4 leukemia
NCI-H226 lung = tested on: NCI-H226 lung
NCI-H23 lung = tested on: NCI-H23 lung
NCI-H322M lung = tested on: NCI-H322M lung
NCI-H522 lung = tested on: NCI-H522 lung
NCI/ADR-RES ovarian = tested on: NCI/ADR-RES ovarian
OVCAR-3 ovarian = tested on: OVCAR-3 ovarian
OVCAR-4 ovarian = tested on: OVCAR-4 ovarian
OVCAR-5 ovarian = tested on: OVCAR-5 ovarian
OVCAR-8 ovarian = tested on: OVCAR-8 ovarian
PC-3 prostate = tested on: PC-3 prostate
RPMI-8226 leukemia = tested on: RPMI-8226 leukemia
RXF 393 renal = tested on: RXF 393 renal
SF-268 CNS = tested on: SF-268 CNS
SF-295 CNS = tested on: SF-295 CNS
SF-539 CNS = tested on: SF-539 CNS
SK-MEL-28 melanoma = tested on: SK-MEL-28 melanoma
SK-OV-3 ovarian = tested on: SK-OV-3 ovarian
SN12C renal = tested on: SN12C renal
SNB-19 CNS = tested on: SNB-19 CNS
SNB-75 CNS = tested on: SNB-75 CNS
SW-620 colon = tested on: SW-620 colon
T-47D breast = tested on: T-47D breast
TK-10 renal = tested on: TK-10 renal
U251 glioblastoma = tested on: U251 glioblastoma
UACC-257 melanoma = tested on: UACC-257 melanoma
UACC-62 melanoma = tested on: UACC-62 melanoma
UO-31 renal = tested on: UO-31 renal

For `Nc1nc(Cl)nc2c1ncn2C1CC(O)C(CO)O1` (stereo not drawn), the GI50 ([…]-0 renal) was 1280 nM, the TGI (786-0 renal) was over 100000 nM and the GI50 (A498 renal) was 701 nM. The TGI (A498 renal) was over 100000 nM, the GI50 (A549 NSCLC) was 434 nM and the TGI (A549 NSCLC) was over 100000 nM. For the same compound, the GI50 (ACHN renal) was 923 nM, the TGI (ACHN renal) was 5140 nM and the GI50 (BT-549 breast) was 184 nM. The TGI (BT-549 breast) was 977 nM, the GI50 (CAKI-1 renal) was 353 nM and the TGI (CAKI-1 renal) was over 100000 nM. It also gave a GI50 (CCRF-CEM leukemia) of 81.2 nM, a TGI (CCRF-CEM leukemia) of 206 nM and a GI50 (DU-145 prostate) of 808 nM. It also gave a TGI (DU-145 prostate) of over 100000 nM, a GI50 (EKVX NSCLC) of over 100000 nM and a TGI (EKVX NSCLC) of over 100000 nM. The GI50 (HCT-116 colon) was 270 nM, the TGI (HCT-116 colon) was over 100000 nM and the GI50 (HCT-15 colon) was 395 nM. The TGI (HCT-15 colon) was over 100000 nM, the GI50 (HL-60(TB) leukemia) was 35.3 nM and the TGI (HL-60(TB) leukemia) was 108 nM. The GI50 (HOP-62 NSCLC) was 236 nM, the TGI (HOP-62 NSCLC) was 969 nM and the GI50 (HOP-92 NSCLC) was 9310 nM. It also gave a TGI (HOP-92 NSCLC) of over 100000 nM, a GI50 (HS 578T breast) of 70700 nM and a TGI (HS 578T breast) of over 100000 nM. It also gave a GI50 (HT29 colon) of 1370 nM, a TGI (HT29 colon) of over 100000 nM and a GI50 (IGROV1 ovarian) of 14700 nM. It also gave a TGI (IGROV1 ovarian) of over 100000 nM, a GI50 (K-562 leukemia) of 428 nM and a TGI (K-562 leukemia) of over 100000 nM. For the same compound, the GI50 (KM12 colon) was 994 nM, the TGI (KM12 colon) was over 100000 nM and the GI50 (LOX IMVI melanoma) was 1110 nM. It also gave a TGI (LOX IMVI melanoma) of 3800 nM, a GI50 (M14 melanoma) of 108 nM and a TGI (M14 melanoma) of 448 nM. It also gave a GI50 (MALME-3M melanoma) of 308 nM, a TGI (MALME-3M melanoma) of over 100000 nM and a GI50 (MCF7 breast) of 650 nM. The TGI (MCF7 breast) was over 100000 nM, the GI50 (MDA-MB-231 breast) was 481 nM and the TGI (MDA-MB-231 breast) was over 100000 nM. For the same compound, the GI50 (MDA-MB-435 melanoma) was 743 nM, the TGI (MDA-MB-435 melanoma) was over 100000 nM and the GI50 (MDA-MB-468 breast) was 3030 nM. It also gave a TGI (MDA-MB-468 breast) of 16200 nM, a GI50 (MOLT-4 leukemia) of 22.9 nM and a TGI (MOLT-4 leukemia) of 59.6 nM. For the same compound, the GI50 (NCI-H226 lung) was 3580 nM, the TGI (NCI-H226 lung) was 18200 nM and the GI50 (NCI-H23 lung) was 212 nM. The TGI (NCI-H23 lung) was 481 nM, the GI50 (NCI-H322M lung) was 37500 nM and the TGI (NCI-H322M lung) was over 100000 nM. For the same compound, the GI50 (NCI-H522 lung) was 830 nM, the TGI (NCI-H522 lung) was over 100000 nM and the GI50 (NCI/ADR-RES ovarian) was 135 nM. For the same compound, the TGI (NCI/ADR-RES ovarian) was over 100000 nM, the GI50 (OVCAR-3 ovarian) was 2090 nM and the TGI (OVCAR-3 ovarian) was over 100000 nM. It also gave a GI50 (OVCAR-4 ovarian) of over 100000 nM, a TGI (OVCAR-4 ovarian) of over 100000 nM and a GI50 (OVCAR-5 ovarian) of 764 nM. For the same compound, the TGI (OVCAR-5 ovarian) was over 100000 nM, the GI50 (OVCAR-8 ovarian) was 35.6 nM and the TGI (OVCAR-8 ovarian) was over 100000 nM. The GI50 (PC-3 prostate) was over 100000 nM, the TGI (PC-3 prostate) was over 100000 nM and the GI50 (RPMI-8226 leukemia) was 372 nM. For the same compound, the TGI (RPMI-8226 leukemia) was 1610 nM, the GI50 (RXF 393 renal) was 47800 nM and the TGI (RXF 393 renal) was over 100000 nM. For the same compound, the GI50 (SF-268 CNS) was 2890 nM, the TGI (SF-268 CNS) was 19800 nM and the GI50 (SF-295 CNS) was 11200 nM. For the same compound, the TGI (SF-295 CNS) was 34100 nM, the GI50 (SF-539 CNS) was 2630 nM and the TGI (SF-539 CNS) was 12200 nM. For the same compound, the GI50 (SK-MEL-28 melanoma) was 552 nM, the TGI (SK-MEL-28 melanoma) was over 100000 nM and the GI50 (SK-OV-3 ovarian) was 3010 nM. For the same compound, the TGI (SK-OV-3 ovarian) was over 100000 nM, the GI50 (SN12C renal) was 122 nM and the TGI (SN12C renal) was 926 nM. For the same compound, the GI50 (SNB-19 CNS) was 738 nM, the TGI (SNB-19 CNS) was over 100000 nM and the GI50 (SNB-75 CNS) was 19900 nM. For the same compound, the TGI (SNB-75 CNS) was 87800 nM, the GI50 (SW-620 colon) was 712 nM and the TGI (SW-620 colon) was over 100000 nM. It also gave a GI50 (T-47D breast) of 6730 nM, a TGI (T-47D breast) of over 100000 nM and a GI50 (TK-10 renal) of over 100000 nM. It also gave a TGI (TK-10 renal) of over 100000 nM, a GI50 (U251 glioblastoma) of 825 nM and a TGI (U251 glioblastoma) of 15800 nM. For the same compound, the GI50 (UACC-257 melanoma) was 1390 nM, the TGI (UACC-257 melanoma) was over 100000 nM and the GI50 (UACC-62 melanoma) was 177 nM. It also gave a TGI (UACC-62 melanoma) of 501 nM, a GI50 (UO-31 renal) of 372 nM and a TGI (UO-31 renal) of 3850 nM.
